# From patent publication US20220249525A1, “Fatty Acid Compounds for Prevention and Treatment of Neurodegenerative Disorders” (T OMEGA AS, priority 2019, published 2022)
# What was measured:
# [1] = test system: HeLaNRF1/c4 reporter cells; assay: Gene expression (qPCR) in HeLaNRF1/c4 reporter cells; format: cell-based; conditions: long-term treatment
# Experimental: The HeLaNRF1/c4 reporter cells were employed to investigate effects of the modified fatty acids on NRF1-regulated mitochondrial biogenesis. The cells (250,000) were seeded in T75 flasks and incubated for 3 hours to allow attachment. The compounds were dissolved in DMSO and diluted in culture medium to provide the final concentration. DMSO at a concentration equivalent to the highest compound concentration was added to control cultures. Resveratrol and AICAR were used as positive controls. Resveratrol has not previously been tested in this reporter model, but we found it relevant to include it for purposes of experimental and mechanistic comparisons. After 3 days of treatment the media was replaced with fresh media containing the corresponding compound. On day 5, the cells were harvested and the cultures split into three fractions: One fraction was used for detection of mitoGFP expression by flow cytometry, to assess effects on NRF-1 regulated mitochondrial biogenesis. Flow cytometry analysis was performed as previously described. Another fraction was used for extraction of RNA and subsequent gene expression analysis using quantitative PCR (see below). The last fraction was employed to investigate effects on mitochondrial respiratory function by extracellular flux analysis (described above). The experiment was replicated three times.
# Total RNA was extracted from harvested cells (RNAeasy kit Qiagen, Hilden, Germany). The RNA content was quantified on Nanodrop 1000 Spectrophotometer (Thermo Scientific). From 1 μg total RNA, cDNA was synthesized using High-Capacity Reverse Transcription Kit (Applied Biosystems, Carlsbad, Calif., US). Gene quantification was done using TaqMan probes for gene expression assays (Applied Biosystems). Probes used were: PGC1α (PPARG coactivator 1α), Hs00173304_m1; HIF1α (hypoxia inducible factor 1α), Hs00153153_m1; PDK1 (pyruvate dehydrogenase kinase 1), Hs01561847_m1; PDK4, (pyruvate dehydrogenase kinase 4), Hs01037712_m1; SIRT4 (sirtuin 4) Hs01015516_g1; ACOX1 (acyl-CoA oxidase 1) Hs01074241_m1; as reference genes, we used; Eukaryotic 18S rRNA Hs99999901_s1; actin beta Hs99999903_m1. Fold change was calculated as geometric mean of ΔΔCt of the two reference genes.
# [2] = test system: MOLM-13 human acute leukemia cells; assay: WST-1 viability of MOLM-13 cells; format: cell-based; conditions: for Abs450 nm (WST-1 viability): complexed to BSA
# Experimental: MOLM-13 suspension cells were diluted and added to 96-well plates (15.000 cells/well).
# The modified fatty acids TTA, tr-TTA, TDG (TGH) and tr-TDG (tr-TGH) were complexed to bovine serum albumin (BSA), and 10-fold dilutions of the fatty acids or BSA control were added to the wells in duplicate. Two plates were run in parallel, and WST-1 was added to the cells after 48 (plate 1) and 72 hours (plate 2). Absorbance at 450 nm measured to assess viability of the cells.
structure (smiles),measurement,setting,value
"CCCCCCCCCCCCCCNCC(=O)O [N-TTA, N-tetradecylglycine]",PDK4 expression,[1],significantly increased
same,PGC1α expression,[1]; vs control,significant increase
same,Abs450 nm (WST-1 viability),"[2]; 48 hours, 0.0625 mM",0.9307
same,Abs450 nm (WST-1 viability),"[2]; 48 hours, 0.125 mM",0.4765
same,Abs450 nm (WST-1 viability),"[2]; 48 hours, 0.25 mM",0.5423
same,Abs450 nm (WST-1 viability),"[2]; 48 hours, 0.5 mM",0.3207
same,Abs450 nm (WST-1 viability),"[2]; 48 hours, 1 mM",0.257
same,Abs450 nm (WST-1 viability),"[2]; 48 hours, 2 mM",0.3163
same,Abs450 nm (WST-1 viability),"[2]; 72 hours, 0.03125 mM",0.4491
same,Abs450 nm (WST-1 viability),"[2]; 72 hours, 0.0625 mM",0.8073
same,Abs450 nm (WST-1 viability),"[2]; 72 hours, 0.125 mM",0.4813
same,Abs450 nm (WST-1 viability),"[2]; 72 hours, 0.25 mM",0.203
same,Abs450 nm (WST-1 viability),"[2]; 72 hours, 0.5 mM",0.175
same,Abs450 nm (WST-1 viability),"[2]; 72 hours, 1 mM",0.1893
same,Abs450 nm (WST-1 viability),"[2]; 72 hours, 2 mM",0.2359
same,toxicity to leukemic cells,"[2]; MOLM-13, compared with TTA and tr-TTA",toxic to leukemic cells at a lower concentration than TTA and tr-TTA
